How the values were obtained:
[1] = target: full-length MALT1 protein (Strep-MALT1(1-824)-His) (Homo sapiens (Human), UniProt Q9UDY8); experiment: MALT1 Biochemical Protease Assay (Ac-LRSR-AMC substrate); conditions: 10 nM FL MALT1, 200 μM Ac-LRSR-AMC, 4 h at RT; read-out: MALT1_Biochemical activity (Ac-LRSR-amc) IC50
How it was run: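 Full-length MALT1 pre-incubated with compounds (30 μM to 0.5 nM, 11 threefold steps) for 50 min at RT. After Ac-LRSR-AMC was added, the reaction ran 4 h at RT and AMC fluorescence was read. IC50 and Hill slope from curve fitting against no-enzyme and no-compound controls.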

[2] = test system: IL6 secretion by TMD8 ABC-DLBCL cells; experiment: Human IL6 Mesoscale assay (TMD-8); type: cell-based; conditions: Homo sapiens, TMD8; TMD-8 cells, 24 h
How it was run: (§1)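 After 24 h at 37 °C with test compounds (15 μM down to 58.6 nM, 9 twofold steps, 0.3% DMSO), IL6 and IL10 secreted by 100,000 OCI-LY3 or TMD8 cells per well were measured in supernatants with a Mesoscale immunoassay. Data were scaled between DMSO wells (high) and RN486 treatment (low).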

[3] = test system: IL10 secretion by TMD8 ABC-DLBCL cells; experiment: Human IL10 Mesoscale assay (TMD-8); type: cell-based; conditions: Homo sapiens, TMD8; TMD-8 cells, 24 h
How it was run: as §1

OCI-Ly3 cells = experiment: 4-day proliferation assay, OCI-Ly3; type: cell-based, human; conditions: Homo sapiens, 96 h, 4 days incubation, CellTiterGLO, read-out: Anti-proliferation: OCI-LY-3 IC50
How it was run: (§2)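 TMD8 and OCI-Ly3 cells were seeded at 10,000 per well and grown 4 days at 37° C, 5% CO2 without beta-mercaptoethanol. Viability was read by CellTiter-Glo luminescence. IC50 and Hill slope were fitted relative to the low control median.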

TMD8 cells = experiment: 4-day proliferation assay, TMD8; type: cell-based; conditions: Homo sapiens, 96 h, 4 days incubation, CellTiterGLO, read-out: Anti-proliferation: TMD-8 IC50
How it was run: as §2

Chain of full-length MALT1 protein (Strep-MALT1(1-824)-His) (Q9UDY8 whole entry): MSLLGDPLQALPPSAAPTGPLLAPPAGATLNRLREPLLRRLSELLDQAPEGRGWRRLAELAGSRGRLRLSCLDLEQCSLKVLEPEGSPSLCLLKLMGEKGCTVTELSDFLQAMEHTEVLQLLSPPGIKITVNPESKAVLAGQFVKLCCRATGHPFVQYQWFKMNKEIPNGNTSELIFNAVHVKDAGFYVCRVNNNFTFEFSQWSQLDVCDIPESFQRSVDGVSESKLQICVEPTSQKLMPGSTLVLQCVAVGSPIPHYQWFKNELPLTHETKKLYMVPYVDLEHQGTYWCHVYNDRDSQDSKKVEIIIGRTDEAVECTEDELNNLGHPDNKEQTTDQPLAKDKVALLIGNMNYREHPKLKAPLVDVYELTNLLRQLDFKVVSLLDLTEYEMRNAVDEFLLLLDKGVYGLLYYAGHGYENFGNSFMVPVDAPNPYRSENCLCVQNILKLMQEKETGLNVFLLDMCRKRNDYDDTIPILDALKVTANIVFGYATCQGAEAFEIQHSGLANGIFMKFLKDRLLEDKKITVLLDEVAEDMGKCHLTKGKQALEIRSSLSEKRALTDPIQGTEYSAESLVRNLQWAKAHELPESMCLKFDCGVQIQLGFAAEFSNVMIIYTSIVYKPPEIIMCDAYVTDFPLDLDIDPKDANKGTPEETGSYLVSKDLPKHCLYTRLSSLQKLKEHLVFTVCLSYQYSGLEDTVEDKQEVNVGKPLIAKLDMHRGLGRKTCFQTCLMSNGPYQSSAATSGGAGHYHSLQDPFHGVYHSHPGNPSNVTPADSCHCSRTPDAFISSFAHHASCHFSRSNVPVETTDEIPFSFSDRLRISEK

Row | IC50 [1] | IC50 [2] | IC50 [3] | IC50 (OCI-Ly3 cells) | Structure (SMILES) | IC50 (TMD8 cells)
1 | 1100 nM | 7410 nM | 1050 nM | > 20000 nM | Cc1cncc2c(-n3ncc(C(=O)Nc4cnc(-n5nccn5)c(Cl)c4)c3C(F)(F)F)cccc12 [Cpd 33, N-(5-Chloro-6-(2H-1,2,3-triazol-2-yl)pyridin-3-yl)-1-(4-methylisoquinolin-8-yl)-5-(trifluoromethyl)-1H-pyrazole-4-carboxamide] | > 20000 nM
2 | 389 nM | 339 nM | 112 nM | 905 nM | N#Cc1cc(NC(=O)c2cnn(-c3nccn4nccc34)c2C(F)(F)F)cnc1-n1nccn1 [Cpd 425, N-(5-cyano-6-(2H-1,2,3-triazol-2-yl)pyridin-3-yl)-1-(pyrazolo[1,5-a]pyrazin-4-yl)-5-(trifluoromethyl)-1H-pyrazole-4-carboxamide] | 11000 nM
3 | 141 nM | 251 nM | 324 nM | 1700 nM | O=C1COc2c(Cl)cc(NC(=O)c3cnn(-c4cncc5ccccc45)c3C(F)(F)F)cc2N1 [Cpd 87, N-(8-Chloro-3-oxo-3,4-dihydro-2H-benzo[b][1,4]oxazin-6-yl)-1-(isoquinolin-4-yl)-5-(trifluoromethyl)-1H-pyrazole-4-carboxamide] | ~13800 nM
4 | 29 nM | 912 nM | 2630 nM | 759 nM | Cn1nnc(-c2ncc(NC(=O)c3cnn(-c4cccc5ncccc45)c3C(F)(F)F)cc2C#N)n1 [Cpd 149, N-(5-cyano-6-(2-methyl-2H-tetrazol-5-yl)pyridin-3-yl)-1-(quinolin-5-yl)-5-(trifluoromethyl)-1H-pyrazole-4-carboxamide] | 4360 nM
5 | 23 nM | > 302 nM | > 302 nM | 1120 nM | COC(=O)c1cnn(-c2ncc(NC(=O)c3cnn(-c4cccc5ncccc45)c3C(F)(F)F)cc2Cl)n1 [Cpd 108, Methyl 2-(3-chloro-5-(1-(quinolin-5-yl)-5-(trifluoromethyl)-1H-pyrazole-4-carboxamido)pyridin-2-yl)-2H-1,2,3-triazole-4-carboxylate] | 1660 nM
6 | 28 nM | 126 nM | 47 nM | 626 nM | N#Cc1cc(NC(=O)c2cnn(-c3cncc4ncccc34)c2C(F)(F)F)cnc1-n1nccn1 [Cpd 145, N-(5-cyano-6-(2H-1,2,3-triazol-2-yl)pyridin-3-yl)-1-(1,7-naphthyridin-5-yl)-5-(trifluoromethyl)-1H-pyrazole-4-carboxamide] | 4570 nM
7 | 69 nM | 331 nM | 132 nM | 810 nM | Cc1ncc(-n2ncc(C(=O)Nc3cnc(-n4nccn4)c(Cl)c3)c2C(F)(F)F)c2ccccc12 [Cpd 66, N-(5-chloro-6-(2H-1,2,3-triazol-2-yl)pyridin-3-yl)-1-(1-methylisoquinolin-4-yl)-5-(trifluoromethyl)-1H-pyrazole-4-carboxamide] | ~8710 nM
8 | 60 nM | 282 nM | 120 nM | 260 nM | Cc1cnc2cccc(-n3ncc(C(=O)Nc4cnc(-n5nccn5)c(Cl)c4)c3C(F)(F)F)c2c1 [Cpd 65, N-(5-Chloro-6-(2H-1,2,3-triazol-2-yl)pyridin-3-yl)-1-(3-methylquinolin-5-yl)-5-(trifluoromethyl)-1H-pyrazole-4-carboxamide] | 10200 nM
9 | 26 nM | 107 nM | 17 nM | 380 nM | N#Cc1cc(NC(=O)c2cnn(-c3ncnc4sccc34)c2C(F)(F)F)cnc1-n1nccn1 [Cpd 142, N-(5-cyano-6-(2H-1,2,3-triazol-2-yl)pyridin-3-yl)-1-(thieno[2,3-d]pyrimidin-4-yl)-5-(trifluoromethyl)-1H-pyrazole-4-carboxamide] | 832 nM
10 | 479 nM | 1100 nM | 891 nM | ~1350 nM | O=C(Nc1cnc(-n2ccnc2)c(Cl)c1)c1cnn(-c2cncc3ccccc23)c1C(F)(F)F [Cpd 70, N-(5-chloro-6-(1H-imidazol-1-yl)pyridin-3-yl)-1-(isoquinolin-4-yl)-5-(trifluoromethyl)-1H-pyrazole-4-carboxamide] | ~13800 nM
11 | 44 nM | 933 nM | 363 nM | 1710 nM | N#Cc1cc(NC(=O)c2cnn(-c3cccc4ncccc34)c2C(F)(F)F)cnc1-n1ncc(CO)n1 [Cpd 177, N-(5-cyano-6-(4-(hydroxymethyl)-2H-1,2,3-triazol-2-yl)pyridin-3-yl)-1-(quinolin-5-yl)-5-(trifluoromethyl)-1H-pyrazole-4-carboxamide] | 6610 nM
12 | 55 nM | 81 nM | 112 nM | ~490 nM | Cn1ccc(-c2ncc(NC(=O)c3cnn(-c4cncc5ccccc45)c3C(F)(F)F)cc2C#N)n1 [Cpd 78, N-(5-cyano-6-(1-methyl-1H-pyrazol-3-yl)pyridin-3-yl)-1-(isoquinolin-4-yl)-5-(trifluoromethyl)-1H-pyrazole-4-carboxamide] | 7590 nM
13 | 200 nM | 468 nM | 417 nM | 5750 nM | Cn1ccnc1-c1ncc(NC(=O)c2cnn(-c3cncc4ccccc34)c2C(F)(F)F)cc1Cl [Cpd 98, N-(5-chloro-6-(1-methyl-1H-imidazol-2-yl)pyridin-3-yl)-1-(isoquinolin-4-yl)-5-(trifluoromethyl)-1H-pyrazole-4-carboxamide] | ~11000 nM
14 | 17 nM | 214 nM | 166 nM | 417 nM | [2H]c1ccc2c(-n3ncc(C(=O)Nc4cnc(-n5nccn5)c(C#N)c4)c3C(F)(F)F)cccc2n1 [Cpd 130, N-(5-cyano-6-(2H-1,2,3-triazol-2-yl)pyridin-3-yl)-1-(2-D-quinolin-5-yl)-5-(trifluoromethyl)-1H-pyrazole-4-carboxamide] | 3470 nM
15 | 23 nM | 245 nM | 126 nM | 447 nM | N#Cc1cc(NC(=O)c2cnn(-c3ccnc4ccccc34)c2C(F)(F)F)cnc1-n1nccn1 [Cpd 138, N-(5-cyano-6-(2H-1,2,3-triazol-2-yl)pyridin-3-yl)-1-(quinolin-4-yl)-5-(trifluoromethyl)-1H-pyrazole-4-carboxamide] | 2510 nM
16 | 15 nM | 21 nM | 43 nM | 135 nM | N#Cc1cc(NC(=O)c2cnn(-c3ccnc4sccc34)c2C(F)(F)F)cnc1-n1nccn1 [Cpd 126, N-(5-cyano-6-(2H-1,2,3-triazol-2-yl)pyridin-3-yl)-1-(thieno[2,3-b]pyridin-4-yl)-5-(trifluoromethyl)-1H-pyrazole-4-carboxamide] | 794 nM
17 | 33 nM | 2510 nM | 2340 nM | 486 nM | N#Cc1nccc2c(-n3ncc(C(=O)Nc4cnc(-n5nccn5)c(Cl)c4)c3C(F)(F)F)cccc12 [Cpd 411, N-(5-chloro-6-(2H-1,2,3-triazol-2-yl)pyridin-3-yl)-1-(1-cyanoisoquinolin-5-yl)-5-(trifluoromethyl)-1H-pyrazole-4-carboxamide] | 871 nM
18 | 257 nM | 490 nM | 275 nM | 540 nM | O=C(Nc1cnc(-n2nccn2)c(Cl)c1)c1cnn(-c2nccc3ccccc23)c1C(F)F [Cpd 56, N-(5-Chloro-6-(2H-1,2,3-triazol-2-yl)pyridin-3-yl)-5-(difluoromethyl)-1-(isoquinolin-1-yl)-1H-pyrazole-4-carboxamide] | > 20000 nM
19 | 20 nM | 21 nM | 15 nM | 593 nM | Cc1nc(-n2nccn2)c(C#N)cc1NC(=O)c1cnn(-c2cncc3c(F)cccc23)c1C(F)(F)F [Cpd 124, N-(5-cyano-2-methyl-6-(2H-1,2,3-triazol-2-yl)pyridin-3-yl)-1-(8-fluoroisoquinolin-4-yl)-5-(trifluoromethyl)-1H-pyrazole-4-carboxamide] | 977 nM
20 | 7 nM | 45 nM | 31 nM | 505 nM | NC(=O)c1ncc(-n2ncc(C(=O)Nc3cnc(-n4nccn4)c(Cl)c3)c2C(F)(F)F)c2ccsc12 [Cpd 391, 4-(4-((5-chloro-6-(2H-1,2,3-triazol-2-yl)pyridin-3-yl)carbamoyl)-5-(trifluoromethyl)-1H-pyrazol-1-yl)thieno[2,3-c]pyridine-7-carboxamide] | 676 nM

Row | Structure (SMILES) | IC50 [1] | IC50 [2] | IC50 [3] | IC50 (OCI-Ly3 cells) | IC50 (TMD8 cells)
21 | N#Cc1cc(NC(=O)c2cnn(-c3cncc4ccccc34)c2C(F)(F)F)cnc1OCCCCN [Cpd 84, N-(6-(4-aminobutoxy)-5-cyanopyridin-3-yl)-1-(isoquinolin-4-yl)-5-(trifluoromethyl)-1H-pyrazole-4-carboxamide] | 214 nM | 148 nM | 355 nM | 1700 nM | > 20000 nM

From patent US10954214B2 (Janssen Pharmaceutica NV, priority 2016, dated 2021)
